Like-named read-outs stand apart in the source and are kept apart here.
Columns and labels:
CB1 cannabinoid receptor = target: T1, CB1 cannabinoid receptor (Rattus norvegicus, UniProt P20272); test: CB1 receptor binding assay ([3H] CP-55,940 displacement, rat forebrain membranes); conditions: 0.8 nM [3H] CP-55,940
T1 construct: membranes were prepared from rat forebrain membranes; from tissue; host or cells: rat forebrain
Method: Some of the inventive compounds were tested for CB2 receptor binding affinity and for CB1 receptor affinity (to determine selectivity for the CB2 receptor). As used herein, “binding affinity” is represented by the Ki value which is the inhibition constant correlated with the concentration of an analog required to occupy the 50% of the total number (Bmax) of the receptors. The lower the Ki value the higher the binding affinity. […] For the CB1 receptor binding studies, membranes were prepared from rat forebrain membranes according to the procedure of P. R. Dodd et al, A Rapid Method for Preparing Synaptosomes: Comparison with Alternative Procedures, Brain Res., 107-118 (1981). The binding of the novel analogues to the CB1 cannabinoid receptor was assessed as described in W. A. Devane et al, Determination and Characterization of a Cannabinoid Receptor in a Rat Brain, Mol. Pharmacol., 34, 605-613 (1988) and A. Charalambous et al, 5′-azido Δ^8−THC: A Novel Photoaffinity Label for the Cannabinoid Receptor, J. Med. Chem., 35, 3076-3079 (1992) with the following changes. The above articles are incorporated by reference herein.
(§1) Membranes, previously frozen at −80° C., were thawed on ice. To the stirred suspension was added three volumes of TME (25 mM Tris-HCl buffer, 5 mM MgCl2 and 1 mM EDTA) at a pH 7.4. The suspension was incubated at 4° C. for 30 min. At the end of the incubation, the membranes were pelleted and washed three times with TME.
The treated membranes were subsequently used in the binding assay described below. Approximately 30 μg of membranes were incubated in silanized 96-well microtiter plate with TME containing 0.1% essentially fatty acid-free bovine serum albumin (BSA), 0.8 nM [^3H] CP-55,940, and various concentrations of test materials in a final volume of 200 μL. The assays were incubated for 1 hour at 30° C. and then immediately filtered using Packard Filtermate 196 harvester and Whatman GF/C filterplates and washed with wash buffer (TME) containing 0.5% BSA. Radioactivity was detected using MicroScint 20 scintillation cocktail added directly to the dried filterplates, and the filterplates were counted using a Packard Instruments Top-Count. Nonspecific binding was assessed using 100 nM CP-55,940. Data collected from three independent experiments performed with duplicate determinations was normalized between 100% and 0% specific binding for [^3H] CP-55,940, determined using buffer and 100 nM CP-55,940. The normalized data was analyzed using a 4-parameter nonlinear logistic equation to yield IC50 values. Data from at least two independent experiments performed in duplicate was used to calculate IC50 values which were converted to Ki values using the assumptions of Cheng et al, Relationship Between the Inhibition Constant (Ki) and the concentration of Inhibitor which causes 50% Inhibition (IC50) of an Enzymatic Reaction, Biochem. Pharmacol., 22, 3099-3102, (1973), which is incorporated by reference herein.

CB2 receptor = target: T2, CB2 receptor (Mus musculus, UniProt P47936); test: CB2 receptor binding assay ([3H] CP-55,940 displacement, mouse spleen membranes)
T2 construct: membranes were prepared from frozen mouse spleen; from tissue; host or cells: mouse spleen
Method: as §1
The treated membranes were subsequently used in the binding assay described below. Approximately 30 μg of membranes were incubated in silanized 96-well microtiter plate with TME containing 0.1% essentially fatty acid-free bovine serum albumin (BSA), 0.8 nM [^3H] […] Radioactivity was detected using MicroScint 20 scintillation cocktail added directly to the dried filterplates, and the filterplates were counted using a Packard Instruments Top-Count. […] Data collected from three independent experiments performed with duplicate determinations was normalized between 100% and 0% specific binding for [^3H] […] The normalized data was analyzed using a 4-parameter nonlinear logistic equation to yield IC50 values.
Silanized centrifuge tubes were used throughout to minimize receptor loss due to adsorption. The CB2 binding assay was conducted in the same manner as for the CB1 binding assay. The binding affinities (Ki) were also expressed in nanomoles (nM).

[1] = Fluorescence assay protocol (absorption, excitation and emission scans in MeOH); type: physicochemical
Method: The fluorescent properties of some of the inventive compounds were examined using the following fluorescence assay protocol. All samples were processed in the same manner and diluted in JT BAKER PHOTREX Grade MeOH. Cuvettes and flasks were cleaned and rinsed with distilled water then rinsed twice with MeOH. Samples were kept in the freezer prior to testing. NSG Precision Quartz Cuvettes were used for absorption and spectral scans. Samples were diluted with methanol to a final volume of 5 mL. A 100× dilution of the samples in MeOH was performed. Absorption spectra were run using a Beckman DU-40 Spectrophotometer. Guided by absorption spectra, excitation and emission scans were run using an ISA Fluoromax-2 Fluorometer.
500 μL of MeOH was added into sample vial containing about 1 mg of testing compound, and aspirated with pipette to mix. 500 μL sample aliquot was then placed into 5 mL volumetric flask and brought up to volume with MeOH, and 5 mL was used as stock. Serial dilutions in 50 mL volumetric flasks were performed until final concentration of 100× reached. Dilution protocol was repeated for each sample. After dilution, 2.5 mL of sample was placed into a 3 mL Quartz cuvette and the cuvette was placed in ISA Fluoromax-2 Fluorometer. Absorption scan was run in Beckman DU-40 Spectrophotometer. Excitation and emission scans were run and spectral data were collected.

[2] = mouse spleen membranes, [3H] CP-55,940, read-out: CB2 Ki

T1 sequence (P20272 whole entry): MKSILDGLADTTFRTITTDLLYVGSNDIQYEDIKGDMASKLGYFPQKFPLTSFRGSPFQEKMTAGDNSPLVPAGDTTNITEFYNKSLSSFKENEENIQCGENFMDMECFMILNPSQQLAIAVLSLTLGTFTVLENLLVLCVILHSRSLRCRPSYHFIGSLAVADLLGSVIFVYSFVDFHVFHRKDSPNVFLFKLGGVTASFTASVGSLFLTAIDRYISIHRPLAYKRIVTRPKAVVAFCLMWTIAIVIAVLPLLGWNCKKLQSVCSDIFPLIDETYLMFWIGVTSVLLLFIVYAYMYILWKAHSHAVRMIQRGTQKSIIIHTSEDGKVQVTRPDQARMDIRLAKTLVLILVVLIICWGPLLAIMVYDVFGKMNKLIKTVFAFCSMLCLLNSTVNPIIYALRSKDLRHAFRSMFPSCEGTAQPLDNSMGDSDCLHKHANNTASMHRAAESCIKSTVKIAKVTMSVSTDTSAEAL
T2 sequence (P47936 whole entry): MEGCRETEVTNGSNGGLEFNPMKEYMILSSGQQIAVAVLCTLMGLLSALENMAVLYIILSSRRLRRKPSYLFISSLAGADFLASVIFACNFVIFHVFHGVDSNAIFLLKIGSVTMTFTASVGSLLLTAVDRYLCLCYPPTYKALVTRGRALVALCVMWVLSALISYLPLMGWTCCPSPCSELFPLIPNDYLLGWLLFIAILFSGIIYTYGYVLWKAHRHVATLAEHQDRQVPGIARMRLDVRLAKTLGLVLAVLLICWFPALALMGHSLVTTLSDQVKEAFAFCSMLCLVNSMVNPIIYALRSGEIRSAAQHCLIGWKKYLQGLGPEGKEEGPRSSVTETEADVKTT

Row | Compound | Ki (CB1 cannabinoid receptor) [nM] | Ki (CB2 receptor; [2]) [nM] | Absorbance Peak [1] [nm] | Fluorescence Emission Peak [1] [nm] | Fluorescence Excitation Peak [1] [nm] | Mol Extinction [1] [mol⁻¹ cm⁻¹ L⁻¹] | Stoke's Shift [1] [nm] | Ki (CB2 receptor) [nM]
1 | CCCCCCc1cc2c3c(c(=O)oc2cc1O)CCC(C)C3 (centres unmarked) [Compound 1] | 8610 | 5630 |  |  |  |  |  | 
2 | CCCCCC(C)Oc1cc(O)c2c3c(c(=O)oc2c1)CCC(C)C3 (centres unmarked) [Compound 2] | 150 | 25 | 320 | 423 | 326 | 13900 | 97 | 
3 | CCCCCCC(C)Oc1cc(O)c2c3c(c(=O)oc2c1)CCC(C)C3 (centres unmarked) [Compound 3] | 30 | 6 |  |  |  |  |  | 
4 | CCCCCCN(C)c1cc(O)c2c3c(c(=O)oc2c1)CCC(C)C3 (centres unmarked) [Compound 5] | 2000 | 1660 | 364 | 460 | 368 | 18600 | 92 | 
5 | CCCCCCCN(C)c1cc(O)c2c3c(c(=O)oc2c1)CCC(C)C3 (centres unmarked) [Compound 6] | 122 | 128 | 364 | 460 | 367 | 18000 | 93 | 
6 | CCCCCCN(C)c1cc(O)cc2oc(=O)c3c(c12)CC(C)CC3 (centres unmarked) [Compound 7] | 160 | 288 |  |  |  |  |  | 
7 | CCCCCCCN(C)c1cc(O)cc2oc(=O)c3c(c12)CC(C)CC3 (centres unmarked) [Compound 8] | 2580 |  |  |  |  |  |  | 824
8 | CCCCCCCN(C)c1cc2oc(=O)c3ccc(C)cc3c2c(O)c1Br [Compound 9] | 50 | 3 |  |  |  |  |  | 
9 | CCCCCCCN(C)c1cc(O)c2c(oc(=O)c3ccc(C)cc32)c1Br [Compound 10] | 9 | 0.7 |  |  |  |  |  | 
10 | CCCCCCCN(C)c1cc(O)c2c(c1)oc(=O)c1ccc(C(F)(F)F)cc12 [Compound 11] | 6680 | 1680 |  |  |  |  |  | 
11 | CCCCCCCN(C)c1cc(OC)c2c(c1)oc(=O)c1ccc(C(F)(F)F)cc12 [Compound 12] | 6360 | 1480 |  |  |  |  |  | 
12 | CCCCCCCN(C)c1cc(O)c2c(c1)oc(=O)c1ccc(C)cc12 [Compound 13] | 140 | 16 | 316 | 519 | 319 | 22700 | 200 | 
13 | CCCCCCCN(C)c1cc(OC)c2c(c1)oc(=O)c1ccc(C)cc12 [Compound 14] | 1260 | 90 | 405 | 465 | 405 | 11400 | 60 | 
14 | CCCCCCCN(C)c1cc(O)c2c(c1)oc(=O)c1ccc(O)cc12 [Compound 15] | 990 | 23 | 318 | 502 | 320 | 23400 | 182 | 
15 | CCCCCCCN(C)c1cc(O)c2c(c1)oc(=O)c1ccc(OC)cc12 [Compound 16] | 1300 |  | 317 | 498 | 321 | 21800 | 177 | 148
16 | CCCCCCC(C)Oc1cc(O)c2c3c(c(=O)oc2c1)CCC(=O)C3 (centres unmarked) [Compound 17] | 304 |  |  |  |  |  |  | 0.4
17 | CCCCCCC(C)Oc1cc(OC)c2c3c(c(=O)oc2c1)CCC(=O)C3 (centres unmarked) [Compound 18] | 8430 | 355 |  |  |  |  |  | 
18 | CCCCCCCC(C)(C)c1cc(OC)c2c3c(c(=O)oc2c1)CCC(=O)C3 [Compound 19] | 40 | 1 |  |  |  |  |  | 
19 | CCCCCCC(C)Oc1cc(OC(=O)CCCCN2CCOCC2)c2c3c(c(=O)oc2c1)CCC(=O)C3 (centres unmarked) [Compound 20] | 6 | 0.6 |  |  |  |  |  | 
20 | CCCCCCCC(C)(C)c1cc(OC)c2c3c(c(=O)oc2c1)CCC(C)C3 (centres unmarked) [Compound 32] |  |  | 327 | 390 | 330 |  | 60 | 
21 | CCCCCCC(C)(C)c1cc(O)c2c(c1)oc(=O)c1ccccc12 [Compound 47] | 4790 | 6.6 |  |  |  |  |  | 
22 | CCCCCCC(C)(C)c1cc(O)c2c(c1)oc(=O)c1cc(O)c(O)cc12 [Compound 48] | 1950 | 101 |  |  |  |  |  | 
23 | CCCCCCC(C)(C)c1cc(OC)c2c(c1)oc(=O)c1ccncc12 [Compound 49] | 3760 | 35.4 |  |  |  |  |  | 
